This note sets out measurements from paper PMC5923425, “Structural analysis of human ARS2 as a platform for co-transcriptional RNA sorting” (Nature Communications, 2018).

As usually defined, the Kd is the constant that tells how readily two partners part at equilibrium.

Experiment [1] deals with T1, NCBP3 (full-length, residues 1–620) (Homo sapiens, UniProt Q53F19).
T1 construct: full-length residues 1-620, pFASTBac HTb, expressed in High Five insect cells, N-terminal His6 tag cleaved with TEV
T1 sequence (Q53F19 1-620): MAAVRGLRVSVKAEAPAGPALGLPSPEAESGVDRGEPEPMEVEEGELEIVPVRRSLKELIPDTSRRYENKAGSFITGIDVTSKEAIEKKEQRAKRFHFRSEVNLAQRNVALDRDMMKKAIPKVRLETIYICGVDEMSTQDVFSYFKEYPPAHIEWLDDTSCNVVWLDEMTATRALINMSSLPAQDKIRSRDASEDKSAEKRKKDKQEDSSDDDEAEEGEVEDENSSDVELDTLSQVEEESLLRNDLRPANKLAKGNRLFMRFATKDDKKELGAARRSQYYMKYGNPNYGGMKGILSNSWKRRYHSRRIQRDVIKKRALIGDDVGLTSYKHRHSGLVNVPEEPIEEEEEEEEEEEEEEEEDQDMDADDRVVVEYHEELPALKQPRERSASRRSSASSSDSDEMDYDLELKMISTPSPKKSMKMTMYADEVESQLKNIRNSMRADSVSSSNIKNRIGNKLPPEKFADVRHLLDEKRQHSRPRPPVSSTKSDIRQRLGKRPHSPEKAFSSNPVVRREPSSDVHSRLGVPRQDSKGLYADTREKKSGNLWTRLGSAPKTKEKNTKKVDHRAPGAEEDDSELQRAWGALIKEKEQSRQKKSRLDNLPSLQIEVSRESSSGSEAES
Kind of experiment: isothermal titration calorimetry. The format is binding. The source says: isothermal titration calorimetry on NCBP3 (full-length, residues 1–620)

For a further experiment, the target named is T2, CBP20/2xCBP80 (CBC) (Homo sapiens, UniProt P52298).
T2 construct: gene NCBP2; CBP20-CBP80 heterodimer, CBP80 added 2x (apparently molar excess)
T2 sequence (P52298 2-156): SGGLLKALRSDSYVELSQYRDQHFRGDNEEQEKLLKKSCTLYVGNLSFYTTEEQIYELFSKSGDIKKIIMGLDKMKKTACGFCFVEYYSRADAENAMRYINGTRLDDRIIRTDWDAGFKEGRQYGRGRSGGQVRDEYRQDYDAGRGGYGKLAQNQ
T2 sequence (Q09161 20-790 partner limits assumed): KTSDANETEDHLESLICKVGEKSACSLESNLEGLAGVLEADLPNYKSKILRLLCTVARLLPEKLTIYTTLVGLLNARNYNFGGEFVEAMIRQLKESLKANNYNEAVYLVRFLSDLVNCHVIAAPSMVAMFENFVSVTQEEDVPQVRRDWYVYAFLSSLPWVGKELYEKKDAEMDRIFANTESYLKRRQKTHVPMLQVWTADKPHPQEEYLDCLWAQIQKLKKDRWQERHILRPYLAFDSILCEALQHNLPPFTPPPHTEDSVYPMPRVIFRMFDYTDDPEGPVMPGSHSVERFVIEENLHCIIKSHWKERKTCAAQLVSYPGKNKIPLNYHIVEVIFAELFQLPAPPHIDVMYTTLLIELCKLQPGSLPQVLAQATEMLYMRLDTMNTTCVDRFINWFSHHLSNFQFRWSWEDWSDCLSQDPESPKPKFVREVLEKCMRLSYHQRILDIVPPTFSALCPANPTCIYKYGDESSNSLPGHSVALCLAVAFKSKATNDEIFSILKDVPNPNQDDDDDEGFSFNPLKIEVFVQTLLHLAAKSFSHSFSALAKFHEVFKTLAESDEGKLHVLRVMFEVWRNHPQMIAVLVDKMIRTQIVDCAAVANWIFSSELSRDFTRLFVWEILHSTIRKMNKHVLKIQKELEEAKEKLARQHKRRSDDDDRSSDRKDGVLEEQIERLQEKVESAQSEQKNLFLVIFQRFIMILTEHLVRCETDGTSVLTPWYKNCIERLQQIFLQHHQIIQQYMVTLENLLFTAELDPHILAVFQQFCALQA
Description: isothermal titration calorimetry. The format is binding. The following applies: 250 mM NaCl, 20 mM HEPES, 2 mM TCEP, pH 7.8, 25 °C; CBP80 present (2x). The source says: isothermal titration calorimetry on CBP20/2xCBP80 (CBC)
Background: Isothermal titration calorimetry measures the heat released or taken up as one component is titrated into another.

Another experiment addresses T3, NCBP3/2xCBP80 (Homo sapiens, UniProt Q53F19).
T3 construct: full-length NCBP3 (insect cells, tag cleaved) with CBP80 added (2x, apparently molar excess)
T3 sequence (Q53F19 1-620): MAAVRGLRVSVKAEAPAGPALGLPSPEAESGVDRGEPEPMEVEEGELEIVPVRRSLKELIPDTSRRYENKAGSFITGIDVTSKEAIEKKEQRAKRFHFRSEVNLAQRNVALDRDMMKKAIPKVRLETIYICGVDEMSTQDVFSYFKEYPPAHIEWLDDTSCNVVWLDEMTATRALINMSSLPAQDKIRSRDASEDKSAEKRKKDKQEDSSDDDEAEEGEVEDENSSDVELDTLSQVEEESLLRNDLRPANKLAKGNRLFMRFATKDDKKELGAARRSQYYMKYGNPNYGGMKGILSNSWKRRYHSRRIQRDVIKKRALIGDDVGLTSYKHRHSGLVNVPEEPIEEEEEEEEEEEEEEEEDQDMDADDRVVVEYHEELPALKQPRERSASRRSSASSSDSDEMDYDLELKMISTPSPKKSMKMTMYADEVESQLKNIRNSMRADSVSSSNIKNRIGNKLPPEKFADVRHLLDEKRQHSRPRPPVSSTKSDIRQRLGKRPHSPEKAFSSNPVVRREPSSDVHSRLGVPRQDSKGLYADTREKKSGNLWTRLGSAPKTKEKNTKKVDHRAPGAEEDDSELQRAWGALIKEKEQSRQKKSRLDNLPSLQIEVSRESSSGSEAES
T3 sequence (Q09161 20-790 partner limits assumed): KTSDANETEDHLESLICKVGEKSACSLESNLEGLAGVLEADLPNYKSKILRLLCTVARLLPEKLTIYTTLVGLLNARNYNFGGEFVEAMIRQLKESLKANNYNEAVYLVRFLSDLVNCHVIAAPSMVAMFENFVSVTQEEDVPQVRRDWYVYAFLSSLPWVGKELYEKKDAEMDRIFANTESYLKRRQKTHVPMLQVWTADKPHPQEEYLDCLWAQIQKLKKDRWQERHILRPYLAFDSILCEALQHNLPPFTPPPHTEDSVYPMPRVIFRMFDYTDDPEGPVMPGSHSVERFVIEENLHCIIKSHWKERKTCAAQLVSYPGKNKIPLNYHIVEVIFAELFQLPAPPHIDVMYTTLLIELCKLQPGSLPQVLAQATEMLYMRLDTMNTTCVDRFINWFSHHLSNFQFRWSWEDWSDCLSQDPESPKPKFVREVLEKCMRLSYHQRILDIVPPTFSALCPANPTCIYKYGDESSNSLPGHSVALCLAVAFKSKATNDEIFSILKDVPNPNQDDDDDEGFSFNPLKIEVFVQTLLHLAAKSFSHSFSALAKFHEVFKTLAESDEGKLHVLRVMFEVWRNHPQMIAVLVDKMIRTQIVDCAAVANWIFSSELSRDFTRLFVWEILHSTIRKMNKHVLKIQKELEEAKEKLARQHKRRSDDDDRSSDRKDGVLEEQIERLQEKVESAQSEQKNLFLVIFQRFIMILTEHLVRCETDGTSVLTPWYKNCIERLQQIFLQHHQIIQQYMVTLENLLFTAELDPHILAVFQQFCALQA
Kind of experiment: isothermal titration calorimetry. The format is binding. The source says: isothermal titration calorimetry on NCBP3/2xCBP80

Another experiment has as its target T4, CBP20 (Homo sapiens, UniProt P52298).
T4 construct: gene NCBP2; CBP20 alone, recombinant, purified as described previously
T4 sequence (P52298 2-156): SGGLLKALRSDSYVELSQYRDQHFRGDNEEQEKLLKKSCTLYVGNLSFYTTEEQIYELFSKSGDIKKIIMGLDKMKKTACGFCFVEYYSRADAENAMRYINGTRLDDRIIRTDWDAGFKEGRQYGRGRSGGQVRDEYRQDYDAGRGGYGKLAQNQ
Description: isothermal titration calorimetry. The experiment is classed as binding. As to conditions: 250 mM NaCl, 20 mM HEPES, 2 mM TCEP, pH 7.8, 25 °C; CBP20 without CBP80. The source says: isothermal titration calorimetry on CBP20

In a further experiment the target is T5, NCBP3 1–282 (Homo sapiens, UniProt Q53F19).
T5 construct: N-terminal region with putative RRM domain, residues 1-282, pETM11, E. coli Rosetta 2, His6 tag cleaved with TEV
T5 sequence (Q53F19 1-282): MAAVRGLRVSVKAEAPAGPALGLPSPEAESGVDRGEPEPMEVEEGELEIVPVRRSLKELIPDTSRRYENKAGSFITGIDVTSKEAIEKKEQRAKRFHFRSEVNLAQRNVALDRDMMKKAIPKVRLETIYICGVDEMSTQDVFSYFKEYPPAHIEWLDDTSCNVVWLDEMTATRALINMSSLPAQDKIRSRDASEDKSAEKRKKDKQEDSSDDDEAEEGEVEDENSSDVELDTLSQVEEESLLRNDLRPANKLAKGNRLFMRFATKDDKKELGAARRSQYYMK
Description: isothermal titration calorimetry. The format is binding. The source says: isothermal titration calorimetry on NCBP3 1–282

Another experiment deals with T6, GST-tagged ARS2^147–871 (human, UniProt Q9BXP5-4 147-871).
T6 construct: human ARS2 (SRRT) isoform-e, residues 147-871; The cloning of the GST fusion is not described; also called GST-ARS2; source: E. coli Rosetta 2 (said of all constructs but full-length NCBP3); held on glutathione sepharose
T6 sequence (looked up): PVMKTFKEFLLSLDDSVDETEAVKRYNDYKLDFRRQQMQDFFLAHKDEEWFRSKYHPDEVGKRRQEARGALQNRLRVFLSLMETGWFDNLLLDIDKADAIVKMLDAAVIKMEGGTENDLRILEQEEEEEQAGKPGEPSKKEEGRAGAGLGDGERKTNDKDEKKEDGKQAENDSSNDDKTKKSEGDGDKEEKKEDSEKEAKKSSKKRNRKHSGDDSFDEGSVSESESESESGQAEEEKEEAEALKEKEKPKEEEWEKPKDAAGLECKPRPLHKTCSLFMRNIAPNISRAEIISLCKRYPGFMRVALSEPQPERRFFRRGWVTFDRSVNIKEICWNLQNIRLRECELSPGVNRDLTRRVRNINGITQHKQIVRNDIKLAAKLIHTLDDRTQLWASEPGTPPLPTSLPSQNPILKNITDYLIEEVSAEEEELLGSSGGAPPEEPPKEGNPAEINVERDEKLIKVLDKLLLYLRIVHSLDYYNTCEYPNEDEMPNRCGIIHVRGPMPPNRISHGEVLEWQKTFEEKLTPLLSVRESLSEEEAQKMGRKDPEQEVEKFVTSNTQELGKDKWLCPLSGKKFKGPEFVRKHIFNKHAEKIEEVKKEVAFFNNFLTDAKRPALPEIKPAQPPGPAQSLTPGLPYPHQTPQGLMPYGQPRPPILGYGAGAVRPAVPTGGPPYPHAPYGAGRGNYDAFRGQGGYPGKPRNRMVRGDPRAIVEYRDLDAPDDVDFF
Description: pull-down; GST-tagged ARS2 147–871 on glutathione sepharose, NCBP3 constructs added, in the absence of the cap analogue. As to conditions: both partners purified.

The target in the next experiment is T7, ARS2^147–871 (human, UniProt Q9BXP5-4 147-871).
T7 construct: human ARS2 (SRRT) isoform-e, 871 residues, residues 147-871, cloned into pETM11; also called hARS2; SRRT; source: E. coli Rosetta 2, purified (Ni-Sepharose, TEV cleavage, HiTrap Q, heparin if necessary, SEC); not shown: His6, N-terminal, cleaved
T7 sequence (looked up): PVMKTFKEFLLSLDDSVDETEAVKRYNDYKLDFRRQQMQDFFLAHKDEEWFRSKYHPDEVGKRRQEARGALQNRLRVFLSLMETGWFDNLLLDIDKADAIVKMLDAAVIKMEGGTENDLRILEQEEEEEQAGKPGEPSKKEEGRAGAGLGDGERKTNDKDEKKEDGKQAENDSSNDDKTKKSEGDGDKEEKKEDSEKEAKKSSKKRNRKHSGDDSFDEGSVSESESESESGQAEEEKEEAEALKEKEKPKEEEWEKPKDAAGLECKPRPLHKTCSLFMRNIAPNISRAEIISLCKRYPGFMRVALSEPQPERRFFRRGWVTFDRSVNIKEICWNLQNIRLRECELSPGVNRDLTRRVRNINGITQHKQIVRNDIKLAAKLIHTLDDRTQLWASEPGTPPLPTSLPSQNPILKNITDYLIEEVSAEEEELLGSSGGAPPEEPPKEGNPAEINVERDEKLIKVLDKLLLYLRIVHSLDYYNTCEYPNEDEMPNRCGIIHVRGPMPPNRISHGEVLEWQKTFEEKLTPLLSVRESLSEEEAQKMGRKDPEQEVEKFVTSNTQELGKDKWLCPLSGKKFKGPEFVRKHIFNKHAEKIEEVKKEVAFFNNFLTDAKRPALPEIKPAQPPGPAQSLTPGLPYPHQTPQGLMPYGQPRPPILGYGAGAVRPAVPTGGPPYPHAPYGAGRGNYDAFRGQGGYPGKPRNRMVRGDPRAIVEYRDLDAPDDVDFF
Description: ITC; MicroCal ITC200, 25 °C, ARS2 constructs with NCBP3 1–282; buffer containing 250 mM NaCl; injections of 2.5 µL. The following applies: both partners purified.

`C[n+]1cn([C@@H]2O[C@H](COP(=O)(O)OP(=O)(O)OP(=O)(O)O)[C@@H](O)[C@H]2O)c2nc(N)[nH]c(=O)c21` [m^7GTP]: the Kd in experiment [1] amounted to 4.6 ± 1 µM; at CBP20/2xCBP80 (CBC), 0.37 ± 0.04 µM; on NCBP3/2xCBP80 it was 7.9 ± 0.9 µM; on CBP20, 84 ± 4.2 µM; on NCBP3 1–282 it was 8.3 ± 3 µM.

B1: NCBP3^1–282 (domain or fragment, human, UniProt Q53F19-1 1-282, looked up)
chain: MAAVRGLRVSVKAEAPAGPALGLPSPEAESGVDRGEPEPMEVEEGELEIVPVRRSLKELIPDTSRRYENKAGSFITGIDVTSKEAIEKKEQRAKRFHFRSEVNLAQRNVALDRDMMKKAIPKVRLETIYICGVDEMSTQDVFSYFKEYPPAHIEWLDDTSCNVVWLDEMTATRALINMSSLPAQDKIRSRDASEDKSAEKRKKDKQEDSSDDDEAEEGEVEDENSSDVELDTLSQVEEESLLRNDLRPANKLAKGNRLFMRFATKDDKKELGAARRSQYYMK
notes: cloned into pETM11; also called N-terminal region of NCBP3; source: E. coli Rosetta 2, purified; not shown: His6, N-terminal, cleaved
B1: the binding result with GST-tagged ARS2^147–871 and in the experiment with ARS2^147–871 was “binds” throughout.
